# Tests used:
# [1] = system: Bacillus subtilis; experiment: Antibacterial spectrum, disc zone of inhibition; type: cell-based; conditions: UC 564; 1/2 inch discs, 80 μl
# Procedure: (§1) ^1 Assays marked * used 1/4 inch (6.35 mm) discs and 20 μl
# (§2) All other assays used 1/2 inch (12.7 mm) discs and 80 μl samples.
# (§3) h = hazy; vl = very light; tr = trace. Assay procedures are described in
# (§4) Hanka, L. J., M. R. Burch and W. T. Sokolski. Psicofuranine. IV.
# (§5) Microbiological assay. Antibiot. and Chemoth. 9:432-435 (1959).
# [2] = system: Bacteroides fragilis; experiment: Antibacterial spectrum, disc zone of inhibition; type: cell-based; conditions: UC 6513; 1/2 inch discs, 80 μl
# Procedure: as §1, §2, §3, §4, §5
# [3] = system: Bordetella bronchiseptica; experiment: Antibacterial spectrum, disc zone of inhibition; type: cell-based; conditions: UC 6481; 1/2 inch discs, 80 μl
# Procedure: as §1, §2, §3, §4, §5
# [4] = system: Candida albicans; experiment: Antibacterial spectrum, disc zone of inhibition; type: cell-based; conditions: UC 1392
# Procedure: as §1, §2, §3, §4, §5
# [5] = system: Clostridium perfrigens; experiment: Antibacterial spectrum, disc zone of inhibition; type: cell-based; conditions: UC 6509; 1/2 inch discs, 80 μl
# Procedure: as §1, §2, §3, §4, §5
# [6] = system: Escherichia coli; experiment: Antibacterial spectrum, disc zone of inhibition; type: cell-based; conditions: UC 51; 1/2 inch discs, 80 μl
# Procedure: as §1, §2, §3, §4, §5
# [7] = system: Hemophilus influenzae; experiment: Antibacterial spectrum, disc zone of inhibition; type: cell-based; conditions: UC 6483; 1/4 inch discs, 20 μl
# Procedure: as §1, §2, §3, §4, §5
# [8] = system: Klebsiella pneumoniae; experiment: Antibacterial spectrum, disc zone of inhibition; type: cell-based; conditions: UC 57; 1/2 inch discs, 80 μl
# Procedure: as §1, §2, §3, §4, §5
# [9] = system: Micrococcus luteus; experiment: Antibacterial spectrum, disc zone of inhibition; type: cell-based; conditions: 1/2 inch discs, 80 μl
# Procedure: as §1, §2, §3, §4, §5
# [10] = system: Mycobacterium avium; experiment: Antibacterial spectrum, disc zone of inhibition; type: cell-based; conditions: UC 159; 1/2 inch discs, 80 μl
# Procedure: as §1, §2, §3, §4, §5
# [11] = system: Pasteurella hemolytica; experiment: Antibacterial spectrum, disc zone of inhibition; type: cell-based; conditions: UC 6531; 1/2 inch discs, 80 μl
# Procedure: as §1, §2, §3, §4, §5
# [12] = system: Penicillium oxalicum; experiment: Antibacterial spectrum, disc zone of inhibition; type: cell-based; conditions: UC 1268
# Procedure: as §1, §2, §3, §4, §5
# [13] = system: Proteus vulgaris; experiment: Antibacterial spectrum, disc zone of inhibition; type: cell-based; conditions: UC 93; 1/2 inch discs, 80 μl
# Procedure: as §1, §2, §3, §4, §5
# [14] = system: Pseudomonas aeruginosa; experiment: Antibacterial spectrum, disc zone of inhibition; type: cell-based; conditions: UC 95; 1/2 inch discs, 80 μl
# Procedure: as §1, §2, §3, §4, §5
# [15] = system: Rhodopseudomonas sphaeroides; experiment: Antibacterial spectrum, disc zone of inhibition; type: cell-based; conditions: UC 3238; 1/2 inch discs, 80 μl
# Procedure: as §1, §2, §3, §4, §5
# [16] = system: Saccharomyces cerevisiae; experiment: Antibacterial spectrum, disc zone of inhibition; type: cell-based; conditions: UC 1342
# Procedure: as §1, §2, §3, §4, §5
# [17] = system: Salmonella schottmuelleri; experiment: Antibacterial spectrum, disc zone of inhibition; type: cell-based; conditions: UC 126; 1/2 inch discs, 80 μl
# Procedure: as §1, §2, §3, §4, §5
# [18] = system: Serratia marcescens; experiment: Antibacterial spectrum, disc zone of inhibition; type: cell-based; conditions: UC 6888; 1/4 inch discs, 20 μl
# Procedure: as §1, §2, §3, §4, §5
# [19] = system: Staphylococcus aureus; experiment: Antibacterial spectrum, disc zone of inhibition; type: cell-based
# Procedure: as §1, §2, §3, §4, §5
# [20] = system: Streptococcus faecalis; experiment: Antibacterial spectrum, disc zone of inhibition; type: cell-based
# Procedure: as §1, §2, §3, §4, §5
# [21] = system: Streptococcus pyogenes; experiment: Antibacterial spectrum, disc zone of inhibition; type: cell-based; conditions: UC 152
# Procedure: as §1, §2, §3, §4, §5
# [22] = system: Neisseria gonorrhoeae; experiment: Antibacterial spectrum, disc zone of inhibition; type: cell-based; parameters: key: hazy; vl: very light; trace; conditions: UC 3065; 1/4 inch discs, 20 μl
# Procedure: as §1, §2, §3, §4, §5
# [23] = system: Staphylococcus epidermidis; experiment: Antibacterial spectrum, disc zone of inhibition; type: cell-based; parameters: key: hazy; vl: very light; trace; conditions: UC 719; 1/4 inch discs, 20 μl
# Procedure: as §1, §2, §3, §4, §5
# [24] = system: Streptococcus pneumoniae; experiment: Antibacterial spectrum, disc zone of inhibition; type: cell-based; parameters: key: hazy; vl: very light; trace; conditions: UC 9207; 1/4 inch discs, 20 μl
# Procedure: as §1, §2, §3, §4, §5
# [25] = Solubility; type: physicochemical
# [26] = Toxicity; parameters: species or system mammals
# [27] = system: Gram-positive bacteria, yeasts, and fungi; experiment: In vitro antimicrobial activity (statement in words); type: cell-based
# [28] = system: yeasts and fungi; experiment: Growth inhibition (statement in words); type: cell-based
smiles,measurement,setting,value
CC(CCN(C)C(=N)N)C(N)C(=O)NC1C=CC(n2ccc(N)nc2=O)OC1C(=O)O (centres unmarked) [Antibiotic 10381a1],Zone of Inhibition,[1],0 mm
same,Zone of Inhibition,[2],21 mm
same,Zone of Inhibition,[3],0 mm
same,activity,[4],active
same,Zone of Inhibition,"[4]; 1/4 inch discs, 20 μl",12 mm
same,Zone of Inhibition,[5],18 mm
same,Zone of Inhibition,[6],0 mm
same,Zone of Inhibition,[7],10 mm
same,Zone of Inhibition,[8],0 mm
same,Zone of Inhibition,[9]; UC 130,32 mm
same,Zone of Inhibition,[9]; UC 3383,32 mm
same,Zone of Inhibition,[10],17 mm
same,Zone of Inhibition,[11],0 mm
same,activity,[12],active
same,Zone of Inhibition,"[12]; 1/2 inch discs, 80 μl",36 mm
same,Zone of Inhibition,[13],0 mm
same,Zone of Inhibition,[14],0 mm
same,Zone of Inhibition,[15],33 mm
same,activity,[16],active
same,Zone of Inhibition,"[16]; 1/2 inch discs, 80 μl",31 mm
same,Zone of Inhibition,[17],0 mm
same,Zone of Inhibition,[18],0 mm
same,Zone of Inhibition,"[19]; UC 80, 1/2 inch discs, 80 μl",16 h
same,Zone of Inhibition,"[19]; UC 3665, 1/2 inch discs, 80 μl",0 mm
same,Zone of Inhibition,"[19]; UC 6685, 1/4 inch discs, 20 μl",0 mm
same,Zone of Inhibition,"[20]; UC 221, 1/4 inch discs, 20 μl",10 vl
same,activity,[20]; UC 694,active
same,activity,[21],active
same,Zone of Inhibition,"[21]; 1/2 inch discs, 80 μl",25 mm
same,Zone of Inhibition,[22],tr
same,Zone of Inhibition,[23],tr
same,Zone of Inhibition,[24],tr
same,Solubility,"[25]; acetone, ethyl acetate, ether and chlorinated or saturated hydrocarbon solvents",Insoluble
same,Solubility,[25]; water and lower alcohols,Soluble
same,toxicity relative to blasticidin,[26]; compared with blasticidin,less toxicity than blasticidin
same,toxicity,[26]; in mammals / versus prior art antibiotics,greatly reduced toxicity
same,antimicrobial activity,[27],broad spectrum antibiotic properties
same,growth inhibitory effect,[28],especially strong growth inhibitory effect
